# Measured values published in patent US11661418B2, “MASP-2 inhibitors and methods of use” (Omeros Corporation, priority 2019, dated 2023).
# Biological target: MASP-2 (CCP1-CCP2-SP) (Homo sapiens (Human), UniProt O00187)
# Test: Enzymatic Assay for MASP-2 (fluorogenic substrate)
# Assay type: biochemical
# Conditions: fluorogenic substrate based on C2 cleavage site; room temperature; 20 mM HEPES pH 7.4, 140 mM NaCl, 0.1% Tween 20; 20 min
# Method: The MASP-2 assay utilizes a fluorogenic substrate, based on the cleavage site for its natural substrate C2. The assay is run at room temperature in an assay buffer containing 20 mM HEPES, pH 7.4, 140 mM NaCl and 0.1% Tween 20. Assay parameters are adjusted such that the assay is linear with respect to time, enzyme, and substrate concentrations. Under these optimized assays conditions, IC50 values are equivalent to Ki values, except in a few cases of “tight binding” inhibitors. Cases of “tight binding” or possible “slow binding” inhibitors are handled by the methods described in Copeland R.A. (2013) Evaluation of Enzyme Inhibitors in Drug Discovery. 2nd Ed., John Wiley and Sons, Inc., Chapters 5-7.
# The MASP-2 assay protocol is carried out as follows. Test compounds are serially diluted in DMSO and then 100 nL of each dilution is transferred to the assay plate(s). 10 μL of Assay Buffer is added, followed by 15 μL of Enzyme MASP-2 (CCP1-CCP2-SP) in Assay Buffer. 15 μL of Substrate in Assay Buffer is then added and mixed to start the reactions. After 20 min at room temperature, 15 μL of a stop solution (0.1 M acetic acid) is added, mixed and the plates are read on a SpectraMax i3x Microplate Reader and exported as Excel files. Each assay plate included a “no inhibitor” (DMSO Only) control, a “no enzyme” control and a reference inhibitor control. % Activity values=100*(average test comp. fluorescence−average “no enzyme” fluorescence)/(average “DMSO only” fluorescence−average “no enzyme” fluorescence). IC50 and Ki values are very reproducible, falling well within 2-fold.
# Chain of MASP-2 (CCP1-CCP2-SP) (O00187 445-686): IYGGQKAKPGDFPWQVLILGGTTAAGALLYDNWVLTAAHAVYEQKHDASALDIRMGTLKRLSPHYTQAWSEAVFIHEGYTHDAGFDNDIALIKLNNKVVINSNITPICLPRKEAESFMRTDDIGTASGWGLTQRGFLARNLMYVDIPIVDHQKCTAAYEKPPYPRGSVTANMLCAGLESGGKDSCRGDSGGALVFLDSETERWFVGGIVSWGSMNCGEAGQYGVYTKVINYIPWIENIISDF
# Chain of MASP-2 (CCP1-CCP2-SP) (O00187 287-444 partner): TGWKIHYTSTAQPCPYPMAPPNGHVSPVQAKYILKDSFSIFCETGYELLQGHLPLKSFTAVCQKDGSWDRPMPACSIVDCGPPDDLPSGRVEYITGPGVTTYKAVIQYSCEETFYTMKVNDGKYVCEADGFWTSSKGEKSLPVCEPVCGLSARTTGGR
row,Ki,SMILES
1,< 500 nM,"CC(C)[C@H](N)C(=O)O/N=C(\N)c1ccc(CNC(=O)[C@H](C)NC(=O)[C@H]2C[C@@H](c3ccccc3)CCN2)cc1 [Compound I-7, (2R,4S)—N—((S)-1-((4-((Z)—N′-((L-valyl)oxy)carbamimidoyl)benzyl)amino)-1-oxopropan-2-yl)-4-phenylpiperidine-2-carboxamide]"
2,< 500 nM,"CCOC(=O)CCN1CC[C@H](c2ccccc2)C[C@@H]1C(=O)N[C@@H](C)C(=O)NCc1ccc(C(=N)N)cc1 [Compound I-13, ethyl 3-((2R,4S)-2-(((S)-1-((4-carbamimidoylbenzyl)amino)-1-oxopropan-2-yl)carbamoyl)-4-phenylpiperidin-1-yl)propanoate]"
3,< 500 nM,"C[C@H](NC(=O)[C@H]1C[C@@H](c2ccccc2)CCN1CCP(=O)(O)O)C(=O)NCc1cc2cnccc2[nH]1 [Compound I-15, (2-((2R,4S)-2-(((S)-1-(((1H-pyrrolo[3,2-c]pyridin-2-yl)methyl)amino)-1-oxopropan-2-yl)carbamoyl)-4-phenylpiperidin-1-yl)ethyl)phosphonic acid]"
4,< 500 nM,"CN1CC[C@H](c2ccccc2)C[C@@H]1C(=O)N1CC[C@H]1C(=O)NCc1ccc(C(=N)N)cc1 [Compound I-17, (S)—N-(4-carbamimidoylbenzyl)-1-((2R,4S)-1-methyl-4-phenylpiperidine-2-carbonyl)azetidine-2-carboxamide]"
5,< 500 nM,"CCN1CC[C@H](c2ccccc2)C[C@@H]1C(=O)N[C@@H](C)C(=O)NCc1ccc(C(=N)N)cc1 [Compound I-21, (2R,4S)—N—((S)-1-((4-carbamimidoylbenzyl)amino)-1-OXOPROPAN-2-yl)-1-ethyl-4-phenylpiperidine-2-carboxamide]"

# More lines, now with the values behind:
row,SMILES,Ki
1,"C[C@H](NC(=O)[C@H]1C[C@@H](c2ccccc2)CC[N+]1(C)C)C(=O)NCc1ccc(C(=N)N)cc1 [Compound I-10, (2R,4S)-2-(((S)-1-((4-carbamimidoylbenzyl)amino)-1-oxopropan-2-yl)carbamoyl)-1,1-dimethyl-4-phenylpiperidin-1-ium 2,2,2-trifluoroacetate]",< 500 nM
2,"C[C@H](NC(=O)[C@H]1C[C@@H](c2ccccc2)CCN1CCC(=O)O)C(=O)NCc1ccc(C(=N)N)cc1 [Compound I-14, 3-((2R,4S)-2-(((S)-1-((4-carbamimidoylbenzyl)amino)-1-oxopropan-2-yl)carbamoyl)-4-phenylpiperidin-1-yl)propanoic acid]",< 500 nM
3,"Cc1nc(N)ccc1CNC(=O)[C@@H]1CCN1C(=O)[C@H]1C[C@@H](c2ccccc2)CCN1C [Compound I-16, (S)—N-((6-amino-2-methylpyridin-3-yl)methyl)-1-((2R,4S)-1-methyl-4-phenylpiperidine-2-carbonyl)azetidine-2-carboxamide]",< 500 nM
4,"N=C(NC(=O)OCc1ccccc1)c1ccc(CNC(=O)[C@@H]2CCN2C(=O)[C@H]2C[C@@H](c3ccccc3)CCN2)cc1 [Compound I-19, benzyl (imino(4-(((S)-1-((2R,4S)-4-phenylpiperidine-2-carbonyl)azetidine-2-carboxamido)methyl)phenyl)methyl)carbamate]",500 to 2500 nM
5,"CCN1CC[C@H](c2ccccc2)C[C@@H]1C(=O)N[C@@H](C)C(=O)NCc1ccc(C(=N)NC(=O)OCc2ccccc2)cc1 [Compound I-20, benzyl ((4-(((S)-2-((2R,4S)-1-ethyl-4-phenylpiperidine-2-carboxamido)propanamido)methyl)phenyl)(imino)methyl)carbamate]",2500 to 10000 nM
6,"CCN1CC[C@H](c2cccc(-n3cccn3)c2)C[C@@H]1C(=O)N[C@@H](C)C(=O)NCc1cc(Cl)ccc1-n1cnnn1 [Compound I-22, (2R,4S)-4-(3-(1H-pyrazol-1-yl)phenyl)-N—((S)-1-((5-chloro-2-(1H-tetrazol-1-yl)benzyl)amino)-1-oxopropan-2-yl)-1-ethylpiperidine-2-carboxamide]",< 500 nM
7,"C[C@H](NC(=O)[C@H]1C[C@@H](c2ccccc2)CCN1)C(=O)NCc1ccc(/C(N)=N/O)s1 [Compound I-24, (2R,4S)—N—((S)-1-(((5-((Z)—N-hydroxycarbamimidoyl)thiophen-2-yl)methyl)amino)-1-oxopropan-2-yl)-4-phenylpiperidine-2-carboxamide]",< 500 nM
8,"C[C@H](NC(=O)[C@H]1C[C@@H](c2ccccc2)CCN1)C(=O)NCc1ccc(/C(N)=N/O)cc1 [Compound I-31, (2R,4S)—N—((S)-1-((4-((Z)—N′-hydroxycarbamimidoyl)benzyl)amino)-1-oxopropan-2-yl)-4-phenylpiperidine-2-carboxamide]",500 to 2500 nM
